According to US10485808B2, “Selective progesterone receptor modulators (SPRM) and stabilized estrogen level in patient” (BAYER PHARMA AKTIENGESELLSCHAFT, priority 2017, dated 2019):

Tests used:
Format in all cases: in vivo, human
[1] = system: healthy women of reproductive age; assay: Study 15818: estradiol (E2) serum concentration after daily oral Compound 1
Method: Example 2: Circulating Endogenous Estrogen Concentrations in Healthy Women of Reproductive Age Receiving Compound 1 (Cp1)
Study protocol (N^o 15818): A randomized, double-blind, parallel-group, multi-center study to investigate the pharmacodynamics, pharmacokinetics and safety after daily oral administration of 4 different doses of Compound 1 in healthy women of reproductive age
Doses: 0.5 mg, 1 mg, 2 mg, or 4 mg once daily
Route of administration: Oral
Duration of treatment: 1×12 weeks (84 days)
• Age: 18-40 years • Smoking ≤10 cigarettes/day • Body mass index ≥18 and ≤32 kg/m^2 • Signed informed consent prior to study participation • No contraindication for intake of Compound 1 • Ovulation in pre-treatment cycle • Use of non-hormonal contraception during the study. Number of Subjects: see Table 1 for the number of subjects per Dosage Measurement of primary variable Estradiol: The estradiol (E2) serum concentration was assessed for each subject at the following Visit Days of the study, see FIG. 1 • Pre-treatment Day 9 (D9) corresponds to the period before start of Compound 1 uptake; the pre-treatment cycle starts on the first day of the subject waking up with menstrual bleeding with intensity more than spotting after screening examinations have shown that the subject is eligible for further participation. The pre-treatment period ends by the starting of next menstrual bleeding; • Treatment Day (D84) corresponds to last intake of Compound 1. The treatment phase started with the first and ended with the last intake of the study drug. The subjects have to start the intake of Compound 1 during the first week of the menstrual cycle after the pre-treatment cycle until the last Treatment Day (D84). • The follow-up cycle 1 started on the first day without study drug intake and will end in case of start of menstrual bleeding (i.e. when the subject is waking up with menstrual bleeding with intensity more than spotting). The first day of menstrual bleeding will define the start of follow-up cycle 2. Follow-up cycle 2 ended when the subjects report the next menstrual bleeding (i.e. first day of waking up with menstrual bleeding with intensity more than spotting).
During pre-treatment, end of treatment and at Follow-up Cycle 2, Estradiol (E2) serum concentrations are measured.
Eligible subjects were randomized to one of the treatment groups (0.5 mg, 1 mg, 2 mg, or 4 mg Compound 1). The treatment period consisted of 12 weeks (84 days) of daily tablet intake.

[2] = system: healthy women of reproductive age; assay: Study 15818: hot flush events during treatment period; conditions: for Hot flush events, Events (%): 12 weeks
Description: Example 3: Hot Flush Event in Study Subject Treated with Compound 1 (Cp1)
See full study description in Example 2.
Hot flush event were reported and monitored during treatment period.

[3] = system: women diagnosed with uterine fibroids; assay: Study 15788: hot flush events during treatment
Description: Example 5: Hot Flush Events in Study Subject Treated with Compound 1 (Cp1)
See full study description in Example 4.
(§1) Hot flush events were reported and monitored during treatment.

[4] = system: women diagnosed with uterine fibroids; assay: Study 17541/A1: hot flush events during treatment; conditions: Cp1 2.0 mg once daily oral, 24 weeks
Description: Example 7: Hot Flush Events in Study Subject Treated with Compound 1 (Cp1)
See full study description in Example 6.
as §1

[5] = Cp1 0.5 mg once daily oral, Follow-up cycle2 D 9
[6] = Cp1 0.5 mg once daily oral, Pre-treatment D 9
[7] = Cp1 0.5 mg once daily oral, Treatment D 84
[8] = Cp1 1 mg once daily oral, Follow-up cycle2 D 9
[9] = Cp1 1 mg once daily oral, Pre-treatment D 9
[10] = Cp1 1 mg once daily oral, Treatment D 84
[11] = Cp1 2 mg once daily oral, Follow-up cycle2 D 9
[12] = Cp1 2 mg once daily oral, Pre-treatment D 9
[13] = Cp1 2 mg once daily oral, Treatment D 84
[14] = Cp1 4 mg once daily oral, Follow-up cycle2 D 9
[15] = Cp1 4 mg once daily oral, Pre-treatment D 9
[16] = Cp1 4 mg once daily oral, Treatment D 84

With `C[C@]12C[C@H](c3ccc(S(C)(=O)=O)cc3)C3=C4CCC(=O)C=C4CC[C@H]3[C@@H]1CC[C@@]2(O)C(F)(F)C(F)(F)F` [Compound 1, (11β,17β)-17-Hydroxy-11-[4-(methylsulphonyl)phenyl]-17-(pentafluoroethyl)estra-4,9-dien-3-one] the “Change of estradiol (E2) concentrations during treatment” value ([1]; 0.5-4 mg once daily, 12 weeks) was “slight decrease”, the “Estradiol concentrations in serum, Max” value [1, 5] was 262 pg/mL and the “Estradiol concentrations in serum, Mean” value [1, 5] was 116.1 pg/mL. For the same compound, the “Estradiol concentrations in serum, Median” value [1, 5] was 79.9 pg/mL, the “Estradiol concentrations in serum, Min” value [1, 5] was 17 pg/mL and the “Estradiol concentrations in serum, Max” value [1, 6] was 381 pg/mL. The “Estradiol concentrations in serum, Mean” value [1, 6] was 138 pg/mL, the “Estradiol concentrations in serum, Median” value [1, 6] was 104.5 pg/mL and the “Estradiol concentrations in serum, Min” value [1, 6] was 14 pg/mL. For the same compound, the “Estradiol concentrations in serum, Max” value [1, 7] was 423 pg/mL, the “Estradiol concentrations in serum, Mean” value [1, 7] was 135.6 pg/mL and the “Estradiol concentrations in serum, Median” value [1, 7] was “about 80 pg/mL”. For the same compound, the “Estradiol concentrations in serum, Min” value [1, 7] was 23 pg/mL, the “Estradiol concentrations in serum, Median” value ([1]; Cp1 0.5 mg once daily oral, Treatment D 84, listed as Cp1) was 82 pg/mL and the “Estradiol concentrations in serum, Max” value [1, 8] was 305 pg/mL. The “Estradiol concentrations in serum, Mean” value [1, 8] was 143.8 pg/mL, the “Estradiol concentrations in serum, Median” value [1, 8] was 119.2 pg/mL and the “Estradiol concentrations in serum, Min” value [1, 8] was 39 pg/mL. The “Estradiol concentrations in serum, Max” value [1, 9] was 311 pg/mL, the “Estradiol concentrations in serum, Mean” value [1, 9] was 143.3 pg/mL and the “Estradiol concentrations in serum, Median” value [1, 9] was 92.3 pg/mL. The “Estradiol concentrations in serum, Min” value [1, 9] was 39 pg/mL, the “Estradiol concentrations in serum, Max” value [1, 10] was 276 pg/mL and the “Estradiol concentrations in serum, Mean” value [1, 10] was 119.4 pg/mL. The “Estradiol concentrations in serum, Median” value [1, 10] was “about 80 pg/mL”, the “Estradiol concentrations in serum, Min” value [1, 10] was 42 pg/mL and the “Estradiol concentrations in serum, Median” value ([1]; Cp1 1 mg once daily oral, Treatment D 84, listed as Cp1) was 81.5 pg/mL. For the same compound, the “Estradiol concentrations in serum, Max” value [1, 11] was 395 pg/mL, the “Estradiol concentrations in serum, Mean” value [1, 11] was 123.9 pg/mL and the “Estradiol concentrations in serum, Median” value [1, 11] was 80.9 pg/mL. The “Estradiol concentrations in serum, Min” value [1, 11] was 33 pg/mL, the “Estradiol concentrations in serum, Max” value [1, 12] was 308 pg/mL and the “Estradiol concentrations in serum, Mean” value [1, 12] was 113.5 pg/mL. The “Estradiol concentrations in serum, Median” value [1, 12] was 82.2 pg/mL, the “Estradiol concentrations in serum, Min” value [1, 12] was 33 pg/mL and the “Estradiol concentrations in serum, Max” value [1, 13] was 330 pg/mL. The “Estradiol concentrations in serum, Mean” value [1, 13] was 91.2 pg/mL, the “Estradiol concentrations in serum, Median” value [1, 13] was “about 80 pg/mL” and the “Estradiol concentrations in serum, Min” value [1, 13] was 34 pg/mL. For the same compound, the “Estradiol concentrations in serum, Median” value ([1]; Cp1 2 mg once daily oral, Treatment D 84, listed as Cp1) was 78.5 pg/mL, the “Estradiol concentrations in serum, Max” value [1, 14] was 279 pg/mL and the “Estradiol concentrations in serum, Mean” value [1, 14] was 109.9 pg/mL. The “Estradiol concentrations in serum, Median” value [1, 14] was 88.7 pg/mL, the “Estradiol concentrations in serum, Min” value [1, 14] was 41 pg/mL and the “Estradiol concentrations in serum, Max” value [1, 15] was 200 pg/mL. For the same compound, the “Estradiol concentrations in serum, Mean” value [1, 15] was 126.4 pg/mL, the “Estradiol concentrations in serum, Median” value [1, 15] was 122.9 pg/mL and the “Estradiol concentrations in serum, Min” value [1, 15] was 44 pg/mL. The “Estradiol concentrations in serum, Max” value [1, 16] was 81 pg/mL, the “Estradiol concentrations in serum, Mean” value [1, 16] was 53.9 pg/mL and the “Estradiol concentrations in serum, Median” value [1, 16] was “about 50 pg/mL”. The “Estradiol concentrations in serum, Min” value [1, 16] was 39 pg/mL, the “Estradiol concentrations in serum, Median” value ([1]; Cp1 4 mg once daily oral, Treatment D 84, listed as Cp1) was 50.5 pg/mL and the “Reversibility of estradiol (E2) decrease after end of treatment” value ([1]; pre-treatment vs follow-up Cycle 2) was “completely reversible”. The “Hot flush events, Events (%)” value ([2]; Cp1 0.5 mg once daily oral) was 5.6%, the “Hot flush events, Events (%)” value ([2]; Cp1 1.0 mg once daily oral) was 11.1% and the “Hot flush events, Events (%)” value ([2]; Cp1 2.0 mg once daily oral) was 17.6%. The “Hot flush events, Events (%)” value ([2]; Cp1 4.0 mg once daily oral) was 29.4%, the Severe hot flushes ([2]; all dose groups 0.5-4 mg) was “No severe hot flushes were reported” and the “Subjects reporting hot flush, total study subjects” value ([2]; all dose groups 0.5-4 mg) was 11. For the same compound, the “Hot flush events, MILD, number of subjects” value ([3]; Cp1 0.5 mg, N = 60, 12 weeks) was 5, the “Hot flush events, MILD, percent of subjects” value ([3]; Cp1 0.5 mg, N = 60, 12 weeks) was 8.3% and the “Hot flush events, MODERATE, number of subjects” value ([3]; Cp1 0.5 mg, N = 60, 12 weeks) was 0. The “Hot flush events, SEVERE, number of subjects” value ([3]; Cp1 0.5 mg, N = 60, 12 weeks) was “single”, the “Hot flush events, SEVERE, percent of subjects” value ([3]; Cp1 0.5 mg, N = 60, 12 weeks) was 1.7% and the “Hot flush events, Total, number of subjects” value ([3]; Cp1 0.5 mg, N = 60, 12 weeks) was 6. The “Hot flush events, Total, percent of subjects” value ([3]; Cp1 0.5 mg, N = 60, 12 weeks) was 0.0%, the “Hot flush events, SEVERE, number of subjects” value ([3]; Cp1 0.5 mg, N = 60, 12 weeks, listed as Cp1) was 1 and the “Hot flush events, MILD, number of subjects” value ([3]; Cp1 1 mg, N = 61, 12 weeks) was 3. The “Hot flush events, MILD, percent of subjects” value ([3]; Cp1 1 mg, N = 61, 12 weeks) was 4.9%, the “Hot flush events, MODERATE, number of subjects” value ([3]; Cp1 1 mg, N = 61, 12 weeks) was 2 and the “Hot flush events, MODERATE, percent of subjects” value ([3]; Cp1 1 mg, N = 61, 12 weeks) was 3.3%. For the same compound, the “Hot flush events, SEVERE, number of subjects” value ([3]; Cp1 1 mg, N = 61, 12 weeks) was 0, the “Hot flush events, Total, number of subjects” value ([3]; Cp1 1 mg, N = 61, 12 weeks) was 5 and the “Hot flush events, Total, percent of subjects” value ([3]; Cp1 1 mg, N = 61, 12 weeks) was 8.2%. For the same compound, the “Hot flush events, MILD, number of subjects” value ([3]; Cp1 2 mg, N = 61, 12 weeks) was 4, the “Hot flush events, MILD, percent of subjects” value ([3]; Cp1 2 mg, N = 61, 12 weeks) was 6.6% and the “Hot flush events, MODERATE, number of subjects” value ([3]; Cp1 2 mg, N = 61, 12 weeks) was 1. For the same compound, the “Hot flush events, MODERATE, percent of subjects” value ([3]; Cp1 2 mg, N = 61, 12 weeks) was 1.6%, the “Hot flush events, SEVERE, number of subjects” value ([3]; Cp1 2 mg, N = 61, 12 weeks) was 0 and the “Hot flush events, Total, number of subjects” value ([3]; Cp1 2 mg, N = 61, 12 weeks) was 5. For the same compound, the “Hot flush events, Total, percent of subjects” value ([3]; Cp1 2 mg, N = 61, 12 weeks) was 8.2%, the “Hot flush events, MILD, number of subjects” value ([3]; Cp1 4 mg, N = 60, 12 weeks) was 5 and the “Hot flush events, MILD, percent of subjects” value ([3]; Cp1 4 mg, N = 60, 12 weeks) was 8.3%. For the same compound, the “Hot flush events, MODERATE, number of subjects” value ([3]; Cp1 4 mg, N = 60, 12 weeks) was 3, the “Hot flush events, MODERATE, percent of subjects” value ([3]; Cp1 4 mg, N = 60, 12 weeks) was 5.0% and the “Hot flush events, SEVERE, number of subjects” value ([3]; Cp1 4 mg, N = 60, 12 weeks) was 0. The “Hot flush events, Total, number of subjects” value ([3]; Cp1 4 mg, N = 60, 12 weeks) was 8, the “Hot flush events, Total, percent of subjects” value ([3]; Cp1 4 mg, N = 60, 12 weeks) was 13.3% and the “Subjects showing mild to moderate hot flushes, overall” value ([3]; all dose groups, 12 weeks) was “no more than 14%”. The “Hot flush events, Events (%)” value [4] was “no more than 11.4%” and the “Hot flush events, Events (%)” value ([4]; listed as Cp1) was 11.4%.
